Assay results published in ChEMBL document CHEMBL1147370, “Selligueain A, a novel highly sweet proanthocyanidin from the rhizomes of Selliguea feei” (J Nat Prod, 1993).

Legend:
[1] = tested on: Mus musculus; experiment: Acute toxicity in Swiss-Webster mouse at 1 g/kg, po; format: organism-based; conditions: in vivo, 1000 mg/kg
[2] = tested on: Mus musculus; experiment: Acute toxicity in Swiss-Webster mouse at 2 g/kg, po; format: organism-based; conditions: in vivo, 2000 mg/kg

With Oc1ccc([C@H]2Oc3c(c(O)cc4c3[C@H]3c5c(O)cc(O)cc5O[C@@](c5ccc(O)cc5)(O4)[C@@H]3O)[C@H](c3c(O)cc(O)c4c3O[C@H](c3ccc(O)cc3)[C@@H](O)C4)[C@H]2O)cc1 [SELLIGUEAIN A] the Activity [1] was “Non-toxic” and the Activity [2] was “Non-toxic”.
